Converted amounts (≈) assume the structure as drawn. Starred links: 1 amine or outer side, 2 acyl side, 3 side chain; linkers in the order of their positions; H or OH if unused. Positions of bridges follow the written chain, without caps; N, C: chain ends. Non-standard residues stand in square brackets, D forms with d. Residues, ends and D or L forms follow the SMILES beside them. *: point of attachment. Orn(4R-OH,5R-OCH2CH2NMe3+) = C[N+](C)(C)CCO[C@@H](N[*:3])[C@H](O)C[C@H](N[*:1])C(=O)[*:2]; hTyr(3S-OH,4S-OH,3'-OSO3H) = N[C@H](C(=O)O)[C@H](O)[C@@H](O)c1ccc(O)c(OS(=O)(=O)O)c1; pTerphenylCO(4''-OnC5H11) = CCCCCOc1ccc(-c2ccc(-c3ccc(C(=O)*)cc3)cc2)cc1; Orn(4R-OH,5R-OH) = O=C([C@H](C[C@@H](O)[C@@H](O)N[*:3])N[*:1])[*:2]; hTyr(3S-OH,4S-OH) = N[C@H](C(=O)O)[C@H](O)[C@@H](O)c1ccc(O)cc1; Pro(3S-OH,4S-Me) = C[C@H]1CN[C@H](C(=O)O)[C@H]1O; X1 = CCCCCOc1ccc(-c2cc(-c3ccc(C(=O)*)cc3)no2)cc1; Gln(3R-OH) = NC(=O)C[C@@H](O)[C@H](N)C(=O)O; Hyp = O=C(O)[C@@H]1C[C@@H](O)CN1
Columns and labels:
[1] = test system: C. parapsilosis CP02; assay: Broth microdilution MIC (CLSI), Examples 3 and 4; conditions: Lodderomyces parapsilosis, CP02, 24 h, read-out: Broth MIC
Protocol: Antifungal susceptibility testing. Candida strains were cultured aerobically at 35° C. on SDA plates or in RPMI 1640 broth (pH 7.0). […] MIC assays were performed in triplicate.

[2] = test system: Candida albicans (Strain R303); assay: Dose-fractionation study in neutropenic ICR mice, kidney fungal burden (Table 24); conditions: 2 mg/kg as a single dose IP; 168 hours
[3] = test system: C. tropicalis; assay: Antifungal susceptibility testing (CLSI M27-S4), WT and echinocandin-resistant isolates; conditions: 24 hr
Protocol: (§1) Antifungal susceptibility testing. Antifungal susceptibility testing was performed in triplicate for a collection of 95 Candida strains (20 C. albicans, 20 C. glabrata, 2 C. dubliniensis, 15 C. krusei, 19 C. parapsilosis, and 19 C. tropicalis) that included 30 isolates showing an echinocandin resistance (ER) phenotype (caspofungin-resistant) in accordance with the guidelines described in the Clinical and Laboratory Standards Institute (CLSI) document M27-S4. […] Stock solutions of the drugs were kept at −86° C.

[4] = test system: C. albicans ATCC 44858; assay: MIC against C. albicans ATCC 44858 at pH 4; assay type: cell-based; conditions: Candida albicans, ATCC44858, pH 4
[5] = test system: C. albicans; assay: Antifungal susceptibility testing (CLSI M27-S4), WT and echinocandin-resistant isolates; conditions: for % of ER isolates with an MIC of ≤0.5 mg/L: C. albicans ER isolates; for MIC median (range): 24 hr
Protocol: as §1

[6] = test system: C. glabrata; assay: Mutant prevention concentration (MPC) determination; assay type: cell-based, Candida glabrata; conditions: wild-type isolates; 24 hr, ~1×10^7 CFU/mL
[7] = Modeling of total plasma concentrations versus MPC; conditions: IV administration of 50 mg; calculated by modeling of pharmacokinetic data
[8] = test system: azole-resistant Candida albicans (R357); assay: Disseminated infection model in neutropenic ICR mice, kidney fungal counts (Example 10, Tables 22-23); assay type: in vivo; conditions: for antimicrobial effect versus vehicle (one-way ANOVA, Dunnett's test): 48 and 72 hr after infection, Compound 1 3, 10, 30 mg/kg IP, amphotericin B 1 and 3 mg/kg IV, fluconazole 20 mg/kg PO; for reduction in colony counts compared to the vehicle control group: kidney, 20 mg/kg PO once
[9] = test system: Aspergillus fumigatus (ATCC 13073); assay: Neutropenic mouse model of disseminated aspergillosis, survival; assay type: in vivo; conditions: one dose; Compound 1 2 mg/kg IV or IP, AMB 2 mg/kg IP; 10 days; P<0.05
[10] = test system: C. albicans; assay: Mutant prevention concentration (MPC) determination; assay type: cell-based, Candida albicans; conditions: wild-type isolates; 24 hr, ~1×10^7 CFU/mL
[11] = Solubility of test articles in vehicle, visual observation (Table 22); assay type: physicochemical; conditions: visual observation
Protocol: Test Articles. […] Amphotericin B and fluconazole were in powder form. Amphotericin B was dissolved in 0.9% NaCl. Fluconazole was dissolved in water (WFI: water for injection).

[12] = test system: Candida albicans (Strain R303); assay: MIC of dose-fractionation strain
[13] = Pharmacokinetic-pharmacodynamic analyses, PK model free-drug plasma exposures; design: species or system mouse
Protocol: Pharmacokinetic-Pharmacodynamic Analyses. Using the data collected from the PK study, a PK model was developed in S-ADAPT. Using the developed PK model, concentration-time profiles and AUC0-168h values were computed for each dosing regimen administered in the dose-fractionation study. […] Relationships between the change in logio CFU from start of therapy and AUC0-168h were explored.

[14] = Phase 1 dose-escalation trials, pharmacokinetics after IV infusion; assay type: in vivo, human
Protocol: PK was assessed using plasma and urine samples collected over 21 days. Safety and tolerability were assessed by adverse events (AEs), vital signs, physical exams, electrocardiograms (ECGs), and safety laboratory values up to 21 days after dosing.

[15] = test system: 1,3-β-D-glucan synthase from C. glabrata; assay: Glucan synthase (GS) inhibition assay; conditions: for IC50: DPL50, WT; for GS activity after treatment with a high dose: F659del mutant GS, 10,000 ng/mL
[16] = Pharmacokinetic study in healthy ICR mice, single IP dose; conditions: 1 to 16 mg/kg IP
Protocol: Pharmacokinetic Study. […] The following doses, at three mice per dose, were studied: 1, 4, and 16 mg/kg.

[17] = test system: C. albicans ATCC 90028 and DPL22; assay: MIC of strains used in mouse study (Table 3); conditions: Candida albicans
[18] = Murine protein binding; assay type: in vitro ADME; conditions: mouse, plasma
[19] = test system: 1,3-β-D-glucan synthase from C. albicans; assay: Glucan synthase (GS) inhibition assay
[20] = test system: C. tropicalis CTO2, MMX 7255, MMX 7525; assay: Time-kill assay in vagina-simulative medium pH 4.0 (Table 18); assay type: cell-based, Candida tropicalis
[21] = test system: C. albicans ATCC 44858, DPL001, R357; assay: Time-kill assay in vagina-simulative medium pH 4.0 (Table 16); assay type: cell-based, Candida albicans
[22] = test system: C. glabrata CG01, ATCC 200918, MMX 7070; assay: Time-kill assay in vagina-simulative medium pH 4.0 (Table 17); assay type: cell-based, Candida glabrata
[23] = test system: C. parapsilosis CP02, CP01, MMX 7370; assay: Time-kill assay in vagina-simulative medium pH 4.0 (Table 19); assay type: cell-based, Candida parapsilosis
[24] = IV infusion, healthy human subjects
[25] = ATCC90028, ATCC 90028, Fks1p WT, Fks2p WT
[26] = ATCC90028, DPL22, Fks1p S645P/S

CCCCCOc1ccc(-c2ccc(-c3ccc(C(=O)N[C@H]4C[C@@H](O)[C@@H](O)NC(=O)[C@@H]5[C@@H](O)[C@@H](C)CN5C(=O)[C@H]([C@@H](C)O)NC(=O)[C@H]([C@H](O)[C@@H](O)c5ccc(O)cc5)NC(=O)[C@@H]5C[C@@H](O)CN5C(=O)[C@H]([C@@H](C)O)NC4=O)cc3)cc2)cc1 [ANID, anidulafungin] ({pTerphenylCO(4''-OnC5H11)}-[Orn(4R-OH,5R-OH)]T[Hyp][hTyr(3S-OH,4S-OH)]T[Pro(3S-OH,4S-Me)]; lactam 1-C)
MIC [1]: 4 µg/mL (≈ 3.51 µM)

CCCCCOc1ccc(-c2ccc(-c3ccc(C(=O)N[C@H]4C[C@@H](O)[C@@H](OCC[N+](C)(C)C)NC(=O)[C@@H]5[C@@H](O)[C@@H](C)CN5C(=O)[C@H]([C@@H](C)O)NC(=O)[C@H]([C@H](O)[C@@H](O)c5ccc(O)cc5)NC(=O)[C@@H]5C[C@@H](O)CN5C(=O)[C@H]([C@@H](C)O)NC4=O)cc3)cc2)cc1 [Compound 1] ({pTerphenylCO(4''-OnC5H11)}-[Orn(4R-OH,5R-OCH2CH2NMe3+)]T[Hyp][hTyr(3S-OH,4S-OH)]T[Pro(3S-OH,4S-Me)]; lactam 1-C)
log10 CFU reduction from baseline [2]: greater than 2 log10 CFU | MIC median (range) ([3]; ER (4 isolates)): 2.00 (0.5-2) mg/L | MIC median (range) ([3]; WT (15 isolates)): 0.03 (0.03)^ mg/L | MIC [4]: 0.25 µg/mL | % of ER isolates with an MIC of ≤0.5 mg/L [5]: 60% | MIC median (range) ([5]; ER (10 isolates)): 0.50 (0.06-2) mg/L | MIC median (range) ([5]; WT (10 isolates)): <0.03 (<0.03)^ mg/L | MPC [6]: 16 µg/mL | total plasma concentration generated [7]: > 16 µg/mL | reduction in fungal counts ([8]; 3, 10, and 30 mg/kg IP once, 48 and 72 hr time points): two log reduction | antimicrobial effect versus vehicle (one-way ANOVA, Dunnett's test) [8]: Significant antimicrobial effects | survival versus vehicle [9]: significantly longer survival than vehicle | MPC [10]: 16 µg/mL | Solubility ([11]; vehicle 10% DMSO/1% Tween 20 in 0.9% NaCl, formulation 0.3, 1 and 3 mg/mL): S | MIC [12]: 0.125 µg/mL | Free-drug plasma AUC0-24 ([13]; 2 mg/kg as a single dose): 65.4 ng·h/mL | time free-drug plasma concentrations of single dose remain above those of the daily regimen ([13]; 2 mg/kg total dose): 48 h | time free-drug plasma concentrations of single dose remain above those of the twice weekly regimen ([13]; 2 mg/kg total dose): 84 h | Free-drug plasma AUC0-24 ([13]; 2 mg/kg total, daily regimen): 9.48 ng·h/mL | Free-drug plasma AUC0-24 ([13]; 2 mg/kg total, twice weekly regimen): 30.3 ng·h/mL | plasma exposures versus dose ([14]; 50-400 mg IV): dose-proportional plasma exposures | apparent clearance [14, 24]: < 0.3 L/h | urinary excretion [14, 24]: < 1% | half-life ([14]; plasma, IV infusion, healthy human subjects, read-out: half-life (t1/2)): > 80 h | IC50 [15]: 0.00257 µg/mL | GS activity after treatment with a high dose [15]: did not exhibit significant reductions in activity | PK linearity over the dose range [16]: linear PK | MIC [17, 25]: < 0.03 µg/mL | MIC [17, 26]: 0.5 µg/mL | fraction unbound [18]: 0.009

CCCCCOc1ccc(-c2cc(-c3ccc(C(=O)N[C@H]4C[C@@H](O)[C@@H](O)NC(=O)[C@@H]5[C@@H](O)[C@@H](C)CN5C(=O)[C@H]([C@H](O)CC(N)=O)NC(=O)[C@H]([C@H](O)[C@@H](O)c5ccc(O)c(OS(=O)(=O)O)c5)NC(=O)[C@@H]5C[C@@H](O)CN5C(=O)[C@H]([C@@H](C)O)NC4=O)cc3)no2)cc1 [MCF, micafungin] (X1-[Orn(4R-OH,5R-OH)]T[Hyp][hTyr(3S-OH,4S-OH,3'-OSO3H)][Gln(3R-OH)][Pro(3S-OH,4S-Me)]; lactam 1-C)
MIC median (range) ([3]; ER (4 isolates)): 2.00 (1-4) mg/L | MIC median (range) ([3]; WT (15 isolates)): 0.03 (0.03)^ mg/L | % of ER isolates with an MIC of ≤0.5 mg/L [5]: 40% | MIC median (range) ([5]; ER (10 isolates)): 0.50 (0.03-4) mg/L | MIC median (range) ([5]; WT (10 isolates)): <0.03 (<0.03)^ mg/L | MPC [6]: 16 µg/mL | MPC [10]: 16 µg/mL | fold increase in IC50 compared to the WT ([19]; F641S mutant): 100 fold | fold increase in IC50 compared to the WT ([19]; S645P mutant): 144 fold | IC50 [15]: 0.000447 µg/mL (≈ 0.000352 µM) | GS activity after treatment with a high dose [15]: did not exhibit significant reductions in activity | MIC [17, 25]: < 0.03 µg/mL | MIC [17, 26]: 0.5 µg/mL

CC[C@H](C)C[C@H](C)CCCCCCCCC(=O)N[C@H]1C[C@@H](O)[C@@H](NCCN)NC(=O)[C@@H]2[C@@H](O)CCN2C(=O)[C@H]([C@H](O)CCN)NC(=O)[C@H]([C@H](O)[C@@H](O)c2ccc(O)cc2)NC(=O)[C@@H]2C[C@@H](O)CN2C(=O)[C@H]([C@@H](C)O)NC1=O [CAS, caspofungin]
MIC [1]: 0.5 µg/mL (≈ 0.457 µM)

OC(Cn1cncn1)(Cn1cncn1)c1ccc(F)cc1F [FLU, fluconazole]
Susceptibility to FLU (S/R) ([20]; C. tropicalis CT02): S | Susceptibility to FLU (S/R) ([20]; C. tropicalis MMX 7255): R | Susceptibility to FLU (S/R) ([20]; C. tropicalis MMX 7525): R | Susceptibility to FLU (S/R) ([21]; C. albicans ATCC 44858): S | Susceptibility to FLU (S/R) ([21]; C. albicans DPL001): R | Susceptibility to FLU (S/R) ([21]; C. albicans R357): R | antimicrobial effect versus vehicle (one-way ANOVA, Dunnett's test) [8]: not significant | reduction in colony counts compared to the vehicle control group ([8]; 48 hr after infection): 51% | reduction in colony counts compared to the vehicle control group ([8]; 72 hr after infection): 84% | Solubility ([11]; vehicle WFI, formulation 2 mg/mL): S | Susceptibility to FLU (S/R) ([22]; C. glabrata ATCC 200918): R | Susceptibility to FLU (S/R) ([22]; C. glabrata CG01): S | Susceptibility to FLU (S/R) ([22]; C. glabrata MMX 7070): R | Susceptibility to FLU (S/R) ([23]; C. parapsilosis CP01): R | Susceptibility to FLU (S/R) ([23]; C. parapsilosis CP02): S | Susceptibility to FLU (S/R) ([23]; C. parapsilosis MMX 7370): R
